# Measurements as given in patent US11912794B2, “Modulation of structured polypeptide specificity” (BicycleRD Limited, priority 2011, dated 2024).
# Numbered stars: 1 amine (or outer) side, 2 acyl side, 3 side chain; on linkers, the order of the positions; unused ones are H or OH. Bridge positions count the residues as written; N and C are the ends. Square brackets hold non-standard residues; d marks the D form. Peptide text beside a SMILES is read from it. Pro(trans-4-F) = O=C(O)[C@@H]1C[C@@H](F)CN1; Bip = N[C@@H](Cc1ccc(-c2ccccc2)cc1)C(=O)O; Tpi = O=C(O)[C@@H]1Cc2c([nH]c3ccccc23)CN1; Dip = N[C@H](C(=O)O)C(c1ccccc1)c1ccccc1; X1 = O=C([C@@H]1Cc2ccccc2N1[*:1])[*:2]; 1Nal = N[C@@H](Cc1cccc2ccccc12)C(=O)O; TBMB = c1c(C[*:1])cc(C[*:3])cc1C[*:2]; NMeR = CN[C@@H](CCCNC(=N)N)C(=O)O; hArg = N=C(N)NCCCC[C@H](N)C(=O)O; 3Pal = N[C@@H](Cc1cccnc1)C(=O)O; 4Pal = N[C@@H](Cc1ccncc1)C(=O)O; Cha = N[C@@H](CC1CCCCC1)C(=O)O; Pip = O=C(O)[C@@H]1CCCCN1; Dpg = CCCC(N)(CCC)C(=O)O; Aze = O=C(O)[C@@H]1CCN1
# Assay: Plasma stability profiling method 1 (35% plasma, MALDI-TOF, qualitative)
# Type: in vitro ADME, rat
# Settings: 35% rat plasma, 37 deg C, method 1, comparative estimate
# Procedure: Three methods were employed to assess the stability of bicycles (peptides conjugated to molecular scaffolds) in plasma.
# A rapid plasma stability profiling assay was developed that employed mass spectrometric detection (MALDI-TOF, Voyager DE, Applied Biosystems) of the parent mass, until the time when the parent peptide mass was no longer observable. Specifically, 200 uM of peptide was incubated in the presence of 35% rat or human plasma (Sera labs, using citrate as anticoagulant) at 37 deg C., which was supplemented with 1×PBS (derived from a 10×PBS Stock, Sigma). At various time points (i.e. t=0, 3, 24 hrs, henceafter daily up to 10 days), 2 uL of sample was added to 18 uL of 30 mM ammonium bicarbonate in a 1:1 mixture of acetonitrile:H2O. Samples were frozen at −80 deg C. until the time of analysis. For mass spectrometric analysis that determines the approximate detection window of the peptide, the acetonitrile:H2O-diluted sample of a given time point was spotted directly (0.7 uL) onto the MALDI plate. Matrix (alpha-cyanocinnamic acid, Sigma, prepared as a saturated solution in 1:1 acetonitrile:water containing 0.1% trifluoroacetic acid) was layered over the sample (1 uL). At a similar laser intensity setting on the MALDI TOF, the time could then be determined until parent peptide was no longer detectable. It should be noted that this is a qualitative assay serves to detect relative changes in plasma stability.
row,SMILES,"Observable in rat plasma, for days [days]"
1,CC(=O)N[C@H]1CSCc2cc3cc(c2)CSC[C@H](NC(=O)[C@H](CCCNC(=N)N)NC(=O)[C@H](C)NC(=O)[C@@H]2C[C@@H](F)CN2C(=O)[C@H](Cc2c[nH]c4ccccc24)NC(=O)[C@H](CO)NC1=O)C(=O)N[C@@H](CC(C)C)C(=O)N[C@@H](Cc1c[nH]cn1)C(=O)N[C@@H](CCC(N)=O)C(=O)N[C@@H](CC(=O)O)C(=O)N[C@@H](CC(C)C)C(=O)N[C@H](C(N)=O)CSC3 [Ac-(06-34-18) 4FluoPro3] (Ac-CSW[Pro(trans-4-F)]ARCLHQDLC-NH2; linker 1-7-13 via TBMB),2
2,"CC(=O)N[C@H]1CSCc2cc3cc(c2)CSC[C@H](NC(=O)[C@H](CCCNC(=N)N)NC(=O)[C@H](C)NC(=O)[C@@H]2CCCN2C(=O)[C@H](Cc2ccc(-c4ccccc4)cc2)NC(=O)[C@H](CO)NC1=O)C(=O)N[C@@H](CC(C)C)C(=O)N[C@@H](Cc1c[nH]cn1)C(=O)N[C@@H](CCC(N)=O)C(=O)N[C@@H](CC(=O)O)C(=O)N[C@@H](CC(C)C)C(=O)N[C@H](C(N)=O)CSC3 [Ac-(06-34-18) 4,4,BPal2] (Ac-CS[Bip]PARCLHQDLC-NH2; linker 1-7-13 via TBMB)",2
3,CC(=O)N[C@H]1CSCc2cc3cc(c2)CSC[C@H](NC(=O)[C@H](CCCNC(=N)N)NC(=O)[C@H](C)NC(=O)[C@@H]2Cc4c([nH]c5ccccc45)CN2C(=O)[C@H](Cc2c[nH]c4ccccc24)NC(=O)[C@H](CO)NC1=O)C(=O)N[C@@H](CC(C)C)C(=O)N[C@@H](Cc1c[nH]cn1)C(=O)N[C@@H](CCC(N)=O)C(=O)N[C@@H](CC(=O)O)C(=O)N[C@@H](CC(C)C)C(=O)N[C@H](C(N)=O)CSC3 [Ac-(06-34-18) NorHar3] (Ac-CSW[Tpi]ARCLHQDLC-NH2; linker 1-7-13 via TBMB),2
4,CC(=O)N[C@H]1CSCc2cc3cc(c2)CSC[C@H](NC(=O)[C@H](CCCNC(=N)N)NC(=O)[C@H](C)NC(=O)[C@@H]2CCCN2C(=O)[C@H](Cc2ccncc2)NC(=O)[C@H](CO)NC1=O)C(=O)N[C@@H](CC(C)C)C(=O)N[C@@H](Cc1c[nH]cn1)C(=O)N[C@@H](CCC(N)=O)C(=O)N[C@@H](CC(=O)O)C(=O)N[C@@H](CC(C)C)C(=O)N[C@H](C(N)=O)CSC3 [Ac-(06-34-18) 4Pal2] (Ac-CS[4Pal]PARCLHQDLC-NH2; linker 1-7-13 via TBMB),2
5,CC(=O)N[C@H]1CSCc2cc3cc(c2)CSC[C@H](NC(=O)[C@H](CCCNC(=N)N)NC(=O)[C@H](CO)NC(=O)[C@@H]2CCCN2C(=O)[C@H](Cc2c[nH]c4ccccc24)NC(=O)[C@H](CO)NC1=O)C(=O)N[C@@H](CC(C)C)C(=O)N[C@@H](Cc1c[nH]cn1)C(=O)N[C@@H](CCC(N)=O)C(=O)N[C@@H](CC(=O)O)C(=O)N[C@@H](CC(C)C)C(=O)N[C@H](C(N)=O)CSC3 [Ac-(06-34-18) WPSR] (Ac-CSWPSRCLHQDLC-NH2; linker 1-7-13 via TBMB),2
6,CCCC1(CCC)NC(=O)[C@@H](NC(C)=O)CSCc2cc3cc(c2)CSC[C@H](NC(=O)[C@H](CCCNC(=N)N)NC(=O)[C@H](C)NC(=O)[C@@H]2CCCN2C(=O)[C@H](Cc2c[nH]c4ccccc24)NC1=O)C(=O)N[C@@H](CC(C)C)C(=O)N[C@@H](Cc1c[nH]cn1)C(=O)N[C@@H](CCC(N)=O)C(=O)N[C@@H](CC(=O)O)C(=O)N[C@@H](CC(C)C)C(=O)N[C@H](C(N)=O)CSC3 [Ac-(06-34-18) Dpg1] (Ac-C[Dpg]WPARCLHQDLC-NH2; linker 1-7-13 via TBMB),2
7,CC(=O)N[C@H]1CSCc2cc3cc(c2)CSC[C@H](NC(=O)[C@H](CCCNC(=N)N)NC(=O)[C@H](C)NC(=O)[C@@H]2CCCCN2C(=O)[C@H](Cc2c[nH]c4ccccc24)NC(=O)[C@H](CO)NC1=O)C(=O)N[C@@H](CC(C)C)C(=O)N[C@@H](Cc1c[nH]cn1)C(=O)N[C@@H](CCC(N)=O)C(=O)N[C@@H](CC(=O)O)C(=O)N[C@@H](CC(C)C)C(=O)N[C@H](C(N)=O)CSC3 [Ac-(06-34-18) Pip3] (Ac-CSW[Pip]ARCLHQDLC-NH2; linker 1-7-13 via TBMB),2
8,CC(=O)N[C@H]1CSCc2cc3cc(c2)CSC[C@H](NC(=O)[C@H](CCCNC(=N)N)NC(=O)[C@H](C)NC(=O)[C@@H]2Cc4ccccc4N2C(=O)[C@H](Cc2c[nH]c4ccccc24)NC(=O)[C@H](CO)NC1=O)C(=O)N[C@@H](CC(C)C)C(=O)N[C@@H](Cc1c[nH]cn1)C(=O)N[C@@H](CCC(N)=O)C(=O)N[C@@H](CC(=O)O)C(=O)N[C@@H](CC(C)C)C(=O)N[C@H](C(N)=O)CSC3 [Ac-(06-34-18) Ind3] (Ac-CSW[X1]ARCLHQDLC-NH2; linker 1-7-13 via TBMB),2
9,CC(=O)N[C@H]1CSCc2cc3cc(c2)CSC[C@H](NC(=O)[C@H](CCCNC(=N)N)NC(=O)[C@H](C)NC(=O)[C@@H]2CCCN2C(=O)[C@H](Cc2cccc4ccccc24)NC(=O)[C@H](CO)NC1=O)C(=O)N[C@@H](CC(C)C)C(=O)N[C@@H](Cc1c[nH]cn1)C(=O)N[C@@H](CCC(N)=O)C(=O)N[C@@H](CC(=O)O)C(=O)N[C@@H](CC(C)C)C(=O)N[C@H](C(N)=O)CSC3 [Ac-(06-34-18) 1NAL2] (Ac-CS[1Nal]PARCLHQDLC-NH2; linker 1-7-13 via TBMB),2
10,CC(=O)N[C@H]1CSCc2cc3cc(c2)CSC[C@H](NC(=O)[C@H](CCCNC(=N)N)NC(=O)[C@H](C)NC(=O)[C@@H]2CCCN2C(=O)[C@H](Cc2cccnc2)NC(=O)[C@H](CO)NC1=O)C(=O)N[C@@H](CC(C)C)C(=O)N[C@@H](Cc1c[nH]cn1)C(=O)N[C@@H](CCC(N)=O)C(=O)N[C@@H](CC(=O)O)C(=O)N[C@@H](CC(C)C)C(=O)N[C@H](C(N)=O)CSC3 [Ac-(06-34-18) 3Pal2] (Ac-CS[3Pal]PARCLHQDLC-NH2; linker 1-7-13 via TBMB),2
11,CC(=O)N[C@H]1CSCc2cc3cc(c2)CSC[C@H](NC(=O)[C@H](CCCNC(=N)N)NC(=O)[C@H](C)NC(=O)[C@@H]2CCCN2C(=O)[C@H](CC2CCCCC2)NC(=O)[C@H](CO)NC1=O)C(=O)N[C@@H](CC(C)C)C(=O)N[C@@H](Cc1c[nH]cn1)C(=O)N[C@@H](CCC(N)=O)C(=O)N[C@@H](CC(=O)O)C(=O)N[C@@H](CC(C)C)C(=O)N[C@H](C(N)=O)CSC3 [Ac-(06-34-18) Cha2] (Ac-CS[Cha]PARCLHQDLC-NH2; linker 1-7-13 via TBMB),2
12,CC(=O)N[C@H]1CSCc2cc3cc(c2)CSC[C@H](NC(=O)[C@H](CCCCNC(=N)N)NC(=O)[C@H](C)NC(=O)[C@@H]2CCN2C(=O)[C@H](Cc2c[nH]c4ccccc24)NC(=O)[C@H](CO)NC1=O)C(=O)N[C@@H](CC(C)C)C(=O)N[C@@H](Cc1c[nH]cn1)C(=O)N[C@@H](CCC(N)=O)C(=O)N[C@@H](CC(=O)O)C(=O)N[C@@H](CC(C)C)C(=O)N[C@H](C(N)=O)CSC3 [Ac-(06-34-18) Aze3 HomoArg5] (Ac-CSW[Aze]A[hArg]CLHQDLC-NH2; linker 1-7-13 via TBMB),>10
13,CC(=O)N[C@H]1CSCc2cc3cc(c2)CSC[C@H](NC(=O)[C@H](CCCNC(=N)N)NC(=O)[C@H](C)NC(=O)[C@@H]2CCCN2C(=O)[C@@H]2Cc4c([nH]c5ccccc45)CN2C(=O)[C@H](CO)NC1=O)C(=O)N[C@@H](CC(C)C)C(=O)N[C@@H](Cc1c[nH]cn1)C(=O)N[C@@H](CCC(N)=O)C(=O)N[C@@H](CC(=O)O)C(=O)N[C@@H](CC(C)C)C(=O)N[C@H](C(N)=O)CSC3 [Ac-(06-34-18) NorHar2] (Ac-CS[Tpi]PARCLHQDLC-NH2; linker 1-7-13 via TBMB),2
14,CC(=O)N[C@H]1CSCc2cc3cc(c2)CSC[C@H](NC(=O)[C@H](CCCNC(=N)N)N(C)C(=O)[C@H](C)NC(=O)[C@@H]2CCN2C(=O)[C@H](Cc2c[nH]c4ccccc24)NC(=O)[C@H](CO)NC1=O)C(=O)N[C@@H](CC(C)C)C(=O)N[C@@H](Cc1c[nH]cn1)C(=O)N[C@@H](CCC(N)=O)C(=O)N[C@@H](CC(=O)O)C(=O)N[C@@H](CC(C)C)C(=O)N[C@H](C(N)=O)CSC3 [Ac-(06-34-18) Aze3 NMeArg5] (Ac-CSW[Aze]A[NMeR]CLHQDLC-NH2; linker 1-7-13 via TBMB),>10
15,"CC(=O)N[C@H]1CSCc2cc3cc(c2)CSC[C@H](NC(=O)[C@H](CCCNC(=N)N)NC(=O)[C@H](C)NC(=O)[C@@H]2CCCN2C(=O)[C@H](C(c2ccccc2)c2ccccc2)NC(=O)[C@H](CO)NC1=O)C(=O)N[C@@H](CC(C)C)C(=O)N[C@@H](Cc1c[nH]cn1)C(=O)N[C@@H](CCC(N)=O)C(=O)N[C@@H](CC(=O)O)C(=O)N[C@@H](CC(C)C)C(=O)N[C@H](C(N)=O)CSC3 [Ac-(06-34-18) 3,3-DPA2] (Ac-CS[Dip]PARCLHQDLC-NH2; linker 1-7-13 via TBMB)",2
